According to EP1321493A1, “Method for enhancing the solubility of a colorant” (DSM N.V., priority 2001, dated 2003):

Assays:
[1] = according to The Sigma-Aldrich Handbook of Stains, Dyes and Indicators; cited from earlier work
[2] = Solubility / concentration of colorant in toluene; assay type: physicochemical; settings: pure colorant

| Compound | maximum solubility of the pure dye in water [1] | solubility in toluene (in words) [2] |
| --- | --- | --- |
| CCN(CC)c1ccc(C(=C2C=CC(=[N+](CC)CC)C=C2)c2ccc(S(=O)(=O)[O-])cc2S(=O)(=O)[O-])cc1.[Na+] [Acid Blue 1] | 3,0% | – |
| O=C1/C(=C2\Nc3ccc(S(=O)(=O)[O-])cc3C2=O)Nc2ccc(S(=O)(=O)[O-])cc21.[Na+].[Na+] [Acid Blue 74] | 0.3% | – |
| Cl.Cl.Nc1ccc(N=Nc2cccc(N=Nc3ccc(N)cc3N)c2)c(N)c1 [Basic Brown 1] | – | insoluble |
| CC1(C)Nc2cccc3c(N=Nc4ccc(N=Nc5ccccc5)c5ccccc45)ccc(c23)N1 [Solvent Black 3] | 0.01% | – |
